Assay results as given in ChEMBL document CHEMBL2073890, “Multispecific amphipathic substrate transport by an organic anion transporter of human liver” (J Hepatol, 1996).

Experiments:
Type in all cases: functional, cell-based, Oocyte
[1] = target: T1, Solute carrier organic anion transporter family member 1A2 (OATP1A2) (Homo sapiens, UniProt P46721); test: TP_TRANSPORTER: uptake in Xenopus laevis oocytes
T1 sequence (P46721 whole entry): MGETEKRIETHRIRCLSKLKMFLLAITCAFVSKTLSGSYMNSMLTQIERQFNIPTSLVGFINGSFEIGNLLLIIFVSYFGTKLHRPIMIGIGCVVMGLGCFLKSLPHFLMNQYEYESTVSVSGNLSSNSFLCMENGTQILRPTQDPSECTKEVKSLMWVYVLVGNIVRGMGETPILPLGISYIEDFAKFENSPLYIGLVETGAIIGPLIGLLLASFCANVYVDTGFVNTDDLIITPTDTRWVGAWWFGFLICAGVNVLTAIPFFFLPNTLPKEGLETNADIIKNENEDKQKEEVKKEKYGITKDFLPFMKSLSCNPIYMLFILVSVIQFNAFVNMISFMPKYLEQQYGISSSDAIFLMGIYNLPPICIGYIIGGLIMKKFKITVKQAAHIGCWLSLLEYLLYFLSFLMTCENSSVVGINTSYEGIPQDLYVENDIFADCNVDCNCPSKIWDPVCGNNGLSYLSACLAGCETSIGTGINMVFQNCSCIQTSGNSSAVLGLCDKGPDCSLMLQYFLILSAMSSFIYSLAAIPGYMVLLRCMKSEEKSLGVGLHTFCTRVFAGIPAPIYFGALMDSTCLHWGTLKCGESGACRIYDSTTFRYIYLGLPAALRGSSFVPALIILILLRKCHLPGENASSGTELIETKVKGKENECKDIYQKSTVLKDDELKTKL

[2] = target: T1, Solute carrier organic anion transporter family member 1A2 (OATP1A2); test: TP_TRANSPORTER: inhibition of Ouabain uptake (Ouabain: 100 uM, TCDC: 100 uM) in Xenopus laevis oocytes; settings: probe Ouabain
[3] = target: T1, Solute carrier organic anion transporter family member 1A2 (OATP1A2); test: TP_TRANSPORTER: inhibition of E1S uptake (E1S: 0.2 uM, TCDC: 100 uM) in Xenopus laevis oocytes; settings: probe E1S (estrone sulfate)

inhibition at 100 µM [2] [%] | inhibition at 100 µM [3] [%] | SMILES | Km [1] [µM]
– | – | C[C@]12CC[C@@H]3c4ccc(OS(=O)(=O)O)cc4CC[C@H]3[C@@H]1CCC2=O [ESTRONE SULFURIC ACID] | 59
– | – | C[C@@H]1O[C@@H](O[C@H]2C[C@@H](O)[C@]3(CO)[C@H]4[C@H](O)C[C@]5(C)[C@@H](C6=CC(=O)OC6)CC[C@]5(O)[C@@H]4CC[C@]3(O)C2)[C@H](O)[C@H](O)[C@H]1O [OUABAIN] | 5500
100 | 91 | C[C@H](CCC(=O)NCCS(=O)(=O)O)[C@H]1CC[C@H]2[C@@H]3[C@H](O)C[C@@H]4C[C@H](O)CC[C@]4(C)[C@H]3CC[C@]12C [TAUROCHENODEOXYCHOLATE] | –
